From US8889661B2 (Teva Pharmaceutical Industries, Ltd., priority 2010, dated 2014)

Key:
(NZBxNZW)F1 mice [1] = conditions: for proteinuria (PU): Week 12 observation, vs vehicle (water), laquinimod 25 mg/kg p.o. daily, CTX once weekly i.p., MW U test; for immune complex deposition (ICD) in kidney: end of experiment (12 weeks), vs vehicle, scoring and image analysis
Text: Systemic Lupus Erythematosus (SLE) is a disorder of generalized autoimmunity characterized by defective T cell-mediated responses and the formation of a variety of antibodies reactive to self or altered self-antigens. SLE is mainly characterized by the presence of anti-DNA antibodies. Some of these auto-antibodies combine with the corresponding auto-antigens, forming immune complexes, either in the circulating blood or directly in tissues, resulting in severe damage. Glomerulonephritis induced by immune complexes is in fact the major cause of death in patients with SLE. (NZBxNZW)F1 are lupus-prone mice that develop an SLE-like disease spontaneously including anti-dsDNA antibodies (Abs), proteinuria and Immune Complex Deposits (ICD). The (NZBxNZW)F1 (NZB/W) murine model is the hallmark of spontaneous SLE.
MTX is an antimetabolite drug used in treatment of cancer and autoimmune diseases. It acts by inhibiting the metabolism of folic acid via the inhibition of dihydrofolate reductase and blocks DNA synthesis in rapidly proliferate cells. These actions include immunosuppression.
CTX was applied once weekly in a dose of […] i.p. MTX was applied 3 times a week p.o. at 35 μg/mouse.
Also, body weight changes were recorded weekly and at the end of experiment both kidneys were preserved, one for possible conventional histology and one for immune complex detection (ICD) in glomeruli. Evaluation of ICD was performed by scoring and by image analysis.
80 animals were involved in the study.

[2] = system: MRL/lpr lupus mouse model; assay: Non-GLP in vivo evaluation of laquinimod in the MRL/lpr lupus mouse model; conditions: for kidney glomerulonephritis (histopathology) / salivary gland inflammation (histopathological scoring): laquinimod 5 mg/kg, vs vehicle; for kidney glomerulonephritis (histopathology): MMF 100 mg/kg p.o.; for salivary gland inflammation (histopathological scoring): MMF 100 mg/kg
Experimental: This study evaluates the efficacy of laquinimod in the MRL/lpr lupus mouse model.
Animals were monitored until their urine proteinuria reached >200 mg/dL at which time they were enrolled in the study.
Proteinuria, ankle and paw diameters, dsDNA autoantibody levels and survival were monitored during in life portion of the study. At termination, blood samples were harvested for determination of dsDNA autoantibody levels, spleens were harvested and weighed then processed to isolate splenocytes which were counted. Kidney, lung, skin, lymph node, salivary gland and joints were harvested, processed for histological examination and scored by a histopathologist blind to the treatments.

(NZBxNZW)F1 mice [3] = assay: Survival dose response study of laquinimod in the (NZBxNZW)F1 model for SLE, 37 weeks; assay type: in vivo, mouse
Experimental: The positive control used was Cytoxan.
CTX was administered intraperitonealy once weekly, (200 μl/mouse). Blood samples were collected on Weeks 1, 5, 15 and 37. Serum samples were prepared for detection of anti-dsDNA antibodies. After 37 weeks (257 days) of treatment, mice were sacrificed.

[4] = system: active lupus nephritis patients; assay: Phase IIa clinical trial of laquinimod in combination with standard of care (MMF and steroids) in active lupus nephritis; assay type: in vivo, human
Text: Approximately 45 Systemic Lupus Erythematosus patients with active lupus nephritis (LN) are enrolled. [ISN/RPS 2003 classification of lupus nephritis—classes III (A or A/C), IV-S or IV-G (A or A/C), or class V—pure or in combination with class III or IV].
The overall study duration is up to 32 weeks, with the screening phase being up to 4 weeks, the treatment period being 24 weeks and the follow-up period being 4 weeks for all subjects who complete the 24-week treatment period or subjects who prematurely discontinue treatment prior to Week 24 visit.
Placebo arm—2 capsules of placebo. Mycophenolate Mofetil (MMF)
MMF tablets 500 mg. All treatment arms receive MMF at baseline and throughout the study to a target dose of 2 g/day.
Subjects are assessed for study eligibility up to 4 weeks prior to baseline. Eligible subjects are initially randomized in a 1:1 ratio into one of the following two treatment arms: • 1.
Upon approval, randomization into one of the following three treatment arms occurs in a ratio that allows for reaching an overall target enrollment of approximately 15 subjects per treatment arm. Drop-outs are not replaced. • 1.
In addition, all receive IV methylprednisolone 500 mg/day for 3 days followed by 40 mg/day oral prednisolone/prednisone, which is tapered to not more than 10 mg/day by the end of Week 20, on a fixed steroid tapering regimen).
Any of the following results in early termination from the study: • 1. Increase in serum creatinine without improvement in proteinuria from 8 weeks onward (confirmed by repeated measurement within 2 weeks), defined as: • a. Serum creatinine >1.3 mg/dL that is at least 25% higher than the baseline value; and • b. […] Doubling of protein to creatinine ratio compared to baseline and protein to creatinine ratio >3 from Week 8 onwards (confirmed by repeated measurement within 2 weeks. At least one of the measurements should be a 24 hours urine collection). Outcome Measures Response Definitions • 1. Complete response (CR)—protein to creatinine ratio <0.5 and [decreased serum creatinine by at least 25% compared to baseline or serum creatinine <1.3 mg/dL]. • 2. […] BILAG renal response is defined as change from renal A or B at baseline to C or D. • 4. BILAG Substantial Responder (SR) is defined as all systems at last observed value (LOV) are C or D/E providing at least one system is A or B at baseline. Clinical Effect Outcome Measure Renal—System 1. Proportion of Subjects with Complete or Partial Response at Week 24 and the Lack of Treatment Failure

(NZBxNZW)F1 mice [5] = assay: Confirmation of efficacy of laquinimod in the (NZBxNZW)F1 model for SLE, 13 weeks; assay type: in vivo, mouse
Experimental: CTX was administered intraperitonealy once weekly, (200 μl/mouse). Blood samples were collected on Weeks 1, 5, and 11. Serum samples were prepared for detection of anti-dsDNA antibodies. After 13 weeks of treatment, mice were sacrificed and immune complex deposits in their kidneys were evaluated.

[6] = in vivo; cited from earlier work
[7] = daily oral 0.5 mg or 1 mg laquinimod with standard of care (MMF and steroids)
[8] = daily oral 0.5 mg or 1 mg laquinimod with standard of care, during the study period

Structure (SMILES): O=P1(N(CCCl)CCCl)NCCCO1 (stereo not drawn) [CTX, cyclophosphamide]
- proteinuria (PU) ((NZBxNZW)F1 mice [1]): significantly diminished
- immune complex deposition (ICD) in kidney ((NZBxNZW)F1 mice [1]): significantly inhibited

Structure (SMILES): COc1c(C)c2c(c(O)c1C/C=C(\C)CCC(=O)OCCN1CCOCC1)C(=O)OC2 [MMF, 2-morpholinoethyl (E)-6-(1,3-dihydro-4-hydroxy-6-methoxy-7-methyl-3-oxo-5-isogenzofuranyl)-4-methyl-4-hexenoate, reference compound]
- lung BALT hyperplasia (histopathology) ([2]; MMF 100 mg/kg p.o. vs vehicle): significant difference
- kidney glomerulonephritis (histopathology) [2]: significant reductions
- salivary gland inflammation (histopathological scoring) [2]: significant reduction

Structure (SMILES): CN(Cc1cnc2nc(N)nc(N)c2n1)c1ccc(C(=O)N[C@@H](CCC(=O)O)C(=O)O)cc1 [MTX, methotrexate]
- animals died during the treatment period ((NZBxNZW)F1 mice [1]; 12 weeks treatment, 80 animals in the study): 2
- symptoms (proteinuria and immune complex deposition in kidney) ((NZBxNZW)F1 mice [1]; MTX 35 μg/mouse p.o. 3 times a week, 12 weeks): failed to inhibit

Structure (SMILES): CCN(C(=O)c1c(O)c2c(Cl)cccc2n(C)c1=O)c1ccccc1 [laquinimod]
- proteinuria (PU) ((NZBxNZW)F1 mice [1]): significantly diminished
- immune complex deposition (ICD) in kidney ((NZBxNZW)F1 mice [1]): significantly inhibited
- progression of proteinuria ((NZBxNZW)F1 mice [3]; all doses of laquinimod (0.2, 1, 5, 25 mg/kg p.o. 5 days a week), vs vehicle): abrogated the progression of proteinuria
- survival ((NZBxNZW)F1 mice [3]; all doses of laquinimod, 37 weeks): significant prolongation of survival
- proteinuria, compared with positive control CTX ((NZBxNZW)F1 mice [3]; laquinimod doses of 1, 5 and 25 mg/kg): as effective as the positive control cyclophosphamide (CTX)
- proteinuria ((NZBxNZW)F1 mice [3]; laquinimod lowest dose (printed 0.2 mg/ml), compared to the higher doses): abrogated proteinuria but not to the same extent
- anti-dsDNA levels ((NZBxNZW)F1 mice [3]; serum, Weeks 1, 5, 15 and 37): dose dependent reduction in antibody levels over time
- bone resorption (joint histopathology) ([2]; both doses of laquinimod (1 and 5 mg/kg) vs vehicle): Significant reductions
- salivary gland inflammation score, higher vs lower dose ([2]; laquinimod 5 mg/kg compared with 1 mg/kg): significantly lower score
- cartilage damage (joint histopathology) ([2]; laquinimod 5 mg/kg vs vehicle): significant reduction
- joint inflammation (histopathology) ([2]; laquinimod 5 mg/kg vs vehicle): significantly reduced
- splenocytes as percent of total spleen cells ([2]; laquinimod 5 mg/kg vs vehicle): significant reduction
- kidney glomerulonephritis (histopathology) [2]: significant reductions
- salivary gland inflammation (histopathological scoring) [2]: significant reduction
- measures during the in life phase (proteinuria, ankle and paw diameters, dsDNA autoantibody levels, survival) ([2]; laquinimod 1 or 5 mg/kg p.o., trends not significant except sporadic time points): trend toward dose dependent efficacy
- effect of the combination of laquinimod, MMF and steroids on active lupus nephritis ([4]; 0.5 mg and 1.0 mg laquinimod daily with MMF and steroids): significantly more than the additive effect of each agent alone
- complete response (CR) [4, 7]: results in a complete response
- partial response (PR) [4, 7]: results in a partial response
- proteinuria [4, 7]: reduces proteinuria
- tolerability and toxicity [4, 7]: well tolerated and has no toxicity
- treatment of active lupus nephritis [4, 7]: effective to treat active lupus nephritis
- urinary sediments [4, 7]: eliminates urinary sediments
- decrease of glomerular filtration rate (GFR) as compared to baseline [4, 8]: no more than 10%
- glomerular filtration rate (GFR) reached [4, 8]: greater than 70 ml/min/1.73 m^2
- increase of glomerular filtration rate (GFR) as compared to baseline [4, 8]: at least 25%
- anti-dsDNA levels ((NZBxNZW)F1 mice [5]; laquinimod 5 mg/kg): behaved similarly to the positive control CTX
- immune complex deposits ((NZBxNZW)F1 mice [5]; laquinimod 5 mg/kg): behaved similarly to the positive control CTX
- disease progression as measured by proteinuria ((NZBxNZW)F1 mice [5]; laquinimod 0.2 and 5 mg/kg p.o. 5 days a week, 13 weeks): abrogated disease progression
- ICD (immune complex deposits) ((NZBxNZW)F1 mice [5]; laquinimod low dose 0.2 mg/kg): did not inhibit
- anti-dsDNA Ab titers ((NZBxNZW)F1 mice [5]; laquinimod low dose 0.2 mg/kg): did not inhibit
- proteinuria ((NZBxNZW)F1 mice [5]; laquinimod low dose 0.2 mg/kg): prevented increased proteinuria
- oral bioavailability [6]: high
